Assay results from the supplement of paper PMC10307832.

Assays:
Assay in all cases: relative viability (nuclei count vs DMSO), 5 days (fraction); higher = more cells survive
[1] = tested on: NCI-H3122
In short: (§1)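 After 5 days of treatment, lung cancer cells in 1536-well plates were fixed and stained in a single step (final 0.05% Triton X-100, 1% formaldehyde, 1 ug/ml Hoechst) and their nuclei counted on 4× images. Treatment had been applied by pin tool the day after seeding as one drug alone or as a fixed anchor-drug dose with five library-drug doses (not always all listed) in √10 steps. Relative viability is the nuclei count of treated wells divided by that of vehicle wells, and values are medians of duplicate plates.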

[2] = tested on: A-427
In short: as §1

[3] = tested on: NCI-H1793
In short: as §1

[4] = tested on: LXF-289
In short: as §1

[5] = tested on: HARA
In short: as §1

[6] = tested on: NCI-H596
In short: as §1

[7] = tested on: NCI-H2009
In short: as §1

[8] = tested on: PC-3 [JPC-3]
In short: as §1

[9] = tested on: NCI-H441
In short: as §1

[10] = tested on: NCI-H650
In short: as §1

[11] = tested on: NCI-H1975
In short: as §1

## O=C(O)CCCCC(CCSCc1ccccc1)SCc1ccccc1 (centres undefined) [CPI-613] + CCNC(=O)c1noc(-c2cc(C(C)C)c(O)cc2O)c1-c1ccc(CN2CCOCC2)cc1 [Luminespib] (partner 0.01 µM)
[1]; first compound 5 µM
  relative viability: 0.0787
[1]; first compound 15.81 µM
  relative viability: 0.088
[1]; first compound 50 µM
  relative viability: 0.0889
[1]; first compound 158.11 µM
  relative viability: 0.0798
[1]; first compound 500 µM
  relative viability: 0.0712
[2]; first compound 5 µM
  relative viability: 0.85
[2]; first compound 15.81 µM
  relative viability: 0.938
[2]; first compound 50 µM
  relative viability: 0.761
[2]; first compound 158.11 µM
  relative viability: 0.512
[2]; first compound 500 µM
  relative viability: 0.126
[3]; first compound 5 µM
  relative viability: 0.252
[3]; first compound 15.81 µM
  relative viability: 0.372
[3]; first compound 50 µM
  relative viability: 0.175
[3]; first compound 158.11 µM
  relative viability: 0.131
[3]; first compound 500 µM
  relative viability: 0.0028
[4]; first compound 5 µM
  relative viability: 0.611
[4]; first compound 15.81 µM
  relative viability: 0.535
[4]; first compound 50 µM
  relative viability: 0.657
[4]; first compound 158.11 µM
  relative viability: 0.206
[4]; first compound 500 µM
  relative viability: 0.0484
[5]; first compound 15.81 µM
  relative viability: 0.635
[5]; first compound 50 µM
  relative viability: 0.757
[5]; first compound 158.11 µM
  relative viability: 0.297
[5]; first compound 500 µM
  relative viability: 0.0024
[6]; first compound 5 µM
  relative viability: 0.954
[6]; first compound 15.81 µM
  relative viability: 0.955
[6]; first compound 50 µM
  relative viability: 1.12
[6]; first compound 158.11 µM
  relative viability: 0.168
[6]; first compound 500 µM
  relative viability: 0.0176
[7]; first compound 5 µM
  relative viability: 1.06
[7]; first compound 15.81 µM
  relative viability: 0.954
[7]; first compound 50 µM
  relative viability: 0.936
[7]; first compound 158.11 µM
  relative viability: 0.179
[7]; first compound 500 µM
  relative viability: 0.012
[8]; first compound 5 µM
  relative viability: 0.594
[8]; first compound 15.81 µM
  relative viability: 0.578
[8]; first compound 50 µM
  relative viability: 0.627
[8]; first compound 158.11 µM
  relative viability: 0.563
[8]; first compound 500 µM
  relative viability: 0.48
[9]; first compound 5 µM
  relative viability: 0.36
[9]; first compound 15.81 µM
  relative viability: 0.38
[9]; first compound 50 µM
  relative viability: 0.289
[9]; first compound 158.11 µM
  relative viability: 0.124
[9]; first compound 500 µM
  relative viability: 0.0495
[10]; first compound 5 µM
  relative viability: 0.811
[10]; first compound 15.81 µM
  relative viability: 0.732
[10]; first compound 50 µM
  relative viability: 0.852
[10]; first compound 158.11 µM
  relative viability: 0.69
[10]; first compound 500 µM
  relative viability: 0.613
[11]; first compound 5 µM
  relative viability: 0.173
[11]; first compound 15.81 µM
  relative viability: 0.171
[11]; first compound 50 µM
  relative viability: 0.194
[11]; first compound 158.11 µM
  relative viability: 0.141
[11]; first compound 500 µM
  relative viability: 0.28
